Patent US9447086B2, “6-amino acid heteroaryldihydropyrimidines for the treatment and prophylaxis of hepatitis B virus infection” (priority 2012, dated 2016)
Converted amounts (≈) assume the structure as drawn. Read-outs that look alike come from different tables or passages of the source.

How the values were obtained:
HBV [1] = experiment: Anti-HBV activity in vitro in HepG2.2.15 cells (extracellular HBV DNA by qPCR); type: cell-based, Hepatitis B virus; details: Hepatitis B virus
Description: (§1) HepG2.2.15 and HepDE19 are stably-transfected cell lines containing the HBV genome. Both cell lines are derived from the hepatoblastoma cell line Hep G2 (American Type Culture Collection, ATCC® HB-8065™) by the published procedures described in references: MA Selles et al. Proc. Natl. Acad. Sci. USA 1987, 84, 1005-1009 and H Guo et al. Journal of Virology 2007, 81, 12472-12484, respectively. Both cell lines were maintained in Dulbecco's modified Eagle's medium (DMEM)-F12 medium supplemented with 10% fetal bovine serum, 100 U/mL penicillin, 100 μg/mL streptomycin, and 0.5 mg/mL of G418.
While HepG2.2.15 cells constitutively support HBV replication and production of virus particles, HepDE19 cells are inducible by tetracycline. Addition of 1 μg/mL tetracycline in culture medium suppresses HBV replication in HepDE19 cells, whereas switching to tetracycline-free medium resumes this process.
HepG2.2.15 cells were seeded into 96-well plates (3×10^4 cells in 100 μl media per well) and incubated overnight at 37° C. The test compounds were serially half-log diluted in DMSO, then diluted 100 times in culture media. 100 μL diluted compounds were added into the plates to reach 0.5% final concentration of DMSO in every well. Five days after compound treatment, culture supernatant was collected for further analysis.
For quantitative PCR detection of extracellular HBV DNA, 100 μL culture supernatant was collected and processed in MagNA Pure 96 Nucleic Acid Purification System (Roche Applied Science) for viral DNA extraction. The extracted samples were subjected to HBV DNA quantification by qPCR.
The compounds of the present invention were tested for their capacity to inhibit a HBV activity and activation as described herein.

[2] = Cytotoxicity (CC50) in HepDE19 cells, CCK-8 cell viability; type: cell-based; details: human, HepDE19 cells; read-out: CC50
Description: as §1
Five days after treatment, cell viability was measured by addition of 20 μL of CCK-8 reagent. Two hours after incubation at 37° C., the absorbance at wavelengths of 450 nm and 630 nm (OD450 and OD630) was recorded by a plate reader.

HBV [3] = experiment: Selectivity index (CC50 value/EC50 value); type: cell-based, Hepatitis B virus
Description: Based on FDA guidance, in order to support clinical testing in humans, the assessment of acceptable risk-benefit has to be achieved by providing clear evidence of in vitro antiviral activity (EC50) and cytotoxicity (CC50). It is important to establish that an investigational product has antiviral activity at concentrations that can be achieved in vivo without inducing toxic effects to cells. Furthermore, in a cell culture model, apparent antiviral activity of an investigational product can be the result of host cell death after exposure to the product. The relative effectiveness of the compound in inhibiting viral replication compared to inducing cell death is defined as the selectivity index (CC50 value/EC50 value). It is desirable to have a high selectivity index giving maximum antiviral activity with minimal cell toxicity.
The relative effectiveness of the compound in inhibiting viral replication compared to inducing cell death is defined as the selectivity index (CC50 value/EC50 value). It is desirable to have a high selectivity index giving maximum antiviral activity with minimal cell toxicity.

[4] = Metabolic stability study in human microsome; type: in vitro ADME
Procedure: Human Microsomes were preincubated with test compound for 10 min at 37° C. in 100 mM phosphate buffer, pH 7.4. The reactions were initiated by adding NADPH or NADPH regenerating system to give a final incubation volume of 400 μL. For NADPH system, the final incubations contained 1 μM test compound, 0.5 mg/mL liver microsomal protein, 1 mM NADPH in 100 mM phosphate buffer, pH 7.4. For the NADPH regenerating system, the final incubations contained 1 μM test compound, 0.5 mg/mL liver microsomal protein, 3 mM glucose 6-phosphate, 1 mM NADP, 3 mM MgCl2 and 0.05 mg/mL glucose 6-phosphate dehydrogenase in 100 mM phosphate buffer, pH 7.4. After incubation times of 0, 3, 6, 9, 15 and 30 minutes at 37° C., 50 μL samples was removed and transferred to 150 μL methanol solution which was maintained at 4° C. containing 2 μM tolbutamide (internal standard) to terminating the reaction. Following precipitation and centrifugation, the amount of compound remaining in the samples were determined by LC-MS/MS. Controls of no NADPH or NADPH regenerating system at zero and 30 min were also prepared and analyzed.

[5] = Lyophilisation solubility assay (Lysa); type: physicochemical; details: pH 6.5, aqueous buffer, thermodynamic from solid
Procedure: The aqueous solubility is an important physico-chemical property that plays a significant role in various physical and biological processes. It is desirable to have good solubility which enables good permeability and gastric and intestinal absorption, linear dose proportionality, less PK variability, and easy formulation for PD/PK studies. […] Lyophilisation solubility assay (Lysa) is a well adopted high throughput assay to measure compound solubility in industry.
Samples are prepared in duplicate from 10 mM DMSO stock solutions. After evaporation of DMSO with a centrifugal vacuum evaporator, the residue is solved in 0.05 M phosphate buffer (pH 6.5), stirred for one hour and shaken for two hours. After one night, the solutions is filtered using a microtiter filter plate and the filtrate and its 1/10 dilution are then analyzed by direct UV measurement or by HPLC-UV. […] The results are in μg/mL.

[6] = HepG2.2.15 cells, in-house data, read-out: EC50

| Compound | EC50 (HBV [1]; [6]) [nM] | CC50 at 5 days [2] [nM] | Selectivity index (CC50/EC50) (HBV [3]) | Human Hepatic Clearance [4] [mL/min/kg] | EC50 (HBV [1]; HepG2.2.15) [nM] | solubility thermodynamic [5] [µg/mL] | solubility thermodynamic ([5]; phosphate buffer) [µg/mL] |
| --- | --- | --- | --- | --- | --- | --- | --- |
| COC(=O)C1=C(CN2CCO[C@H](C)[C@H]2C(=O)O)NC(c2nccs2)=N[C@H]1c1ccccc1Br [Example 119, (2R,3S)-4-[(R)-6-(2-Bromo-phenyl)-5-methoxycarbonyl-2-thiazol-2-yl-3,6-dihydro-pyrimidin-4-ylmethyl]-2-methyl-morpholine-3-carboxylic acid] | 3 | > 100000 | >33333 | 0.85 | – | – | – |
| CCOC(=O)C1=C(CN2CCOC[C@H]2C(=O)O)NC(c2nccs2)=N[C@H]1c1ccccc1I [Example 129, (3S)-4-[[(4R)-5-Ethoxycarbonyl-4-(2-iodophenyl)-2-(1,3-thiazol-2-yl)-1,4-dihydropyrimidin-6-yl]methyl]morpholine-3 carboxylic acid] | 7.6 | > 100000 | >13158 | 4.25 | – | – | – |
| CCOC(=O)C1=C(CN2CCO[C@H](C)[C@H]2C(=O)O)NC(c2nccs2)=N[C@H]1c1ccc(F)cc1Br [Example 116, (2R,3S)-4-[(R)-6-(2-Bromo-4-fluoro-phenyl)-5-ethoxycarbonyl-2-thiazol-2-yl-3,6-dihydro-pyrimidin-4-ylmethyl]-2-methyl-morpholine-3-carboxylic acid] | – | – | – | 0 | 1.8 | > 735 | – |
| CCOC(=O)C1=C(CN2CCOC[C@H]2C(=O)O)NC(c2nccs2)=N[C@H]1c1ccc(Cl)cc1Cl [Example 39, (S)-4-[(R)-6-(2,4-Dichloro-phenyl)-5-ethoxycarbonyl-2-thiazol-2-yl-3,6-dihydro-pyrimidin-4-ylmethyl]-morpholine-3-carboxylic acid] | – | – | – | 7.18 | 1.1 | – | > 654 |
| CCOC(=O)C1=C(CN2CCOC[C@H]2C(=O)O)NC(c2nccs2)=N[C@H]1c1ccc(Cl)c(Br)c1 [Example 124, (3S)-4-[[(4S)-4-(3-Bromo-4-chlorophenyl)-5-ethoxycarbonyl-2-(1,3-thiazol-2-yl)-1,4-dihydropyrimidin-6-yl]methyl]morpholine-3-carboxylic acid] | 29 | – | – | 2.17 | – | – | > 655 |
| COC(=O)C1=C(CN2CC(F)(F)C[C@H]2C(=O)O)NC(c2ncccc2C)=N[C@H]1c1ccc(F)cc1Cl [Example 24, (R)-6-((S)-2-Carboxy-4,4-difluoro-pyrrolidin-1-ylmethyl)-4-(2-chloro-4-fluoro-phenyl)-2-(3-methyl-pyridin-2-yl)-1,4-dihydro-pyrimidine-5-carboxylic acid methyl ester] | 26 | – | – | 3.19 | – | – | 656 (≈ 1250 µM) |
| COC(=O)C1=C(CN2CCSCC2C(=O)O)NC(c2nccs2)=N[C@H]1c1ccc(F)cc1Cl (stereo in doubt) [Example 91, (3S)-4-[[(4R)-4-(2-Chloro-4-fluoro-phenyl)-5-methoxycarbonyl-2-thiazol-2-yl-1,4-dihydropyrimidin-6-yl]methyl]thiomorpholine-3-carboxylic acid] | 38 | – | – | 1.62 | – | – | 584 (≈ 1140 µM) |
| COC(=O)C1=C(CN2CC(F)(F)C[C@H]2C(=O)O)NC(c2cc(Cl)cs2)=N[C@H]1c1ccc(F)cc1Cl [Example 23, (R)-6-((S)-2-Carboxy-4,4-difluoro-pyrrolidin-1-ylmethyl)-4-(2-chloro-4-fluoro-phenyl)-2-(4-chloro-thiophen-2-yl)-1,4-dihydro-pyrimidine-5-carboxylic acid methyl ester] | 25 | – | – | 8.8 | – | – | 172 (≈ 314 µM) |
| COC(=O)C1=C(CN2CC(F)(F)C[C@H]2C(=O)O)NC(c2ncc(F)cc2F)=N[C@H]1c1ccc(F)cc1Cl [Example 4, (R)-6-((S)-2-Carboxy-4,4-difluoro-pyrrolidin-1-ylmethyl)-4-(2-chloro-4-fluoro-phenyl)-2-(3,5-difluoro-pyridin-2-yl)-1,4-dihydro-pyrimidine-5-carboxylic acid methyl ester] | 1.5 | – | – | 5.11 | – | – | > 700 |
| COC(=O)C1=C(CN2CC(F)(F)C[C@H]2C(=O)O)NC(c2nccs2)=N[C@H]1c1ccc(Br)cc1Cl [Example 29, (R)-4-(4-Bromo-2-chloro-phenyl)-6-((S)-2-carboxy-4,4-difluoro-pyrrolidin-1-ylmethyl)-2-thiazol-2-yl-1,4-dihydro-pyrimidine-5-carboxylic acid methyl ester] | 28 | – | – | 7.65 | – | – | 420 (≈ 729 µM) |
| COC(=O)C1=C(CN2C[C@H](C(=O)O)CC(F)(F)C2)NC(c2nccs2)=N[C@H]1c1ccc(F)cc1Cl [Example 14, (R)-6-((R)-5-Carboxy-3,3-difluoro-piperidin-1-ylmethyl)-4-(2-chloro-4-fluoro-phenyl)-2-thiazol-2-yl-1,4-dihydro-pyrimidine-5-carboxylic acid methyl ester] | 41 | – | – | 1.41 | – | – | > 644 |
| COC(=O)C1=C(CN2CCOC[C@@]2(C)C(=O)O)NC(c2nccs2)=N[C@H]1c1ccc(F)c(F)c1Cl [Example 78, (S)-4-[(R)-6-(2-Chloro-3,4-difluoro-phenyl)-5-methoxycarbonyl-2-thiazol-2-yl-3,6-dihydro-pyrimidin-4-ylmethyl]-3-methyl-morpholine-3-carboxylic acid] | 26 | – | – | 3.22 | – | – | > 653 |
| COC(=O)C1=C(CN2C[C@H](C(=O)O)CC(F)(F)C2)NC(c2nc(C)cs2)=N[C@H]1c1ccc(F)cc1Cl [Example 80, (R)-6-((R)-5-Carboxy-3,3-difluoro-piperidin-1-ylmethyl)-4-(2-chloro-4-fluoro-phenyl)-2-(4-methyl-thiazol-2-yl)-1,4-dihydro-pyrimidine-5-carboxylic acid methyl ester] | 27 | – | – | 4.27 | – | – | 518 (≈ 954 µM) |
| CCOC(=O)C1=C(CN2CC(F)(F)C[C@H]2C(=O)O)NC(c2nccn2C)=N[C@H]1c1ccc(F)c(F)c1 [Example 56, (S)-6-((S)-2-Carboxy-4,4-difluoro-pyrrolidin-1-ylmethyl)-4-(3,4-difluoro-phenyl)-2-(1-methyl-1H-imidazol-2-yl)-1,4-dihydro-pyrimidine-5-carboxylic acid ethyl ester] | 15 | – | – | 2.44 | – | – | > 645 |
